Experiment: Ligand stability studies (stock solution at room temperature, LC-MS)
Assay type: physicochemical
Settings: stock solution ~300 μg in 4 mL DMSO/H2O [1:1 v/v] (water for other ligands), bench top, LC-MS every 24 h, 3 days
Description: Ligand stability studies: A stock solution (prepared by dissolving ˜300 μg of ligand in 4 mL of water; in the cases of Compound 2, 4 mL of DMSO/H2O[1:1 v/v] was used) was stored on bench top at room temperature without extra precautions.

With `C/C(=N\O)C(C)(C)NCCN(CCNC(C)(C)/C(C)=N/O)S(=O)(=O)c1ccc(C)cc1` [Compound 2, N,N-bis(2-((E)-3-(hydroxyimino)-2-methylbutan-2-ylamino)ethyl)-4-methylbenzenesulfonamide] the “decomposition of ligand stock solution by LC-MS” value was “no decomposition was observed”.

Source: patent US9125955B2, “99mTc imaging agents and methods of use” (GENERAL ELECTRIC COMPANY, priority 2012, dated 2015)
